Some test systems named below: SF-295 CNS; K-562 leukemia; M14 melanoma; HCT-15 colon; HL-60(TB) leukemia; ACHN renal; NCI-H226 lung; SK-OV-3 ovarian; OVCAR-4 ovarian; MCF7 breast.
Holding throughout (test): growth of human tumour cells (NCI), 48 h

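Results reflect a 48-hour exposure of cells in 96-well plates to compound at five concentrations. GI50 is the concentration that inhibits growth by half. TGI: total growth inhibition.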

Turning to `CC1=C(C(=O)NCc2ccccc2)C(c2ccccc2C)C(C(=O)NCc2ccccc2)=C(C)N1`, the TGI with SF-295 CNS is over 85.5 µM; in the assay on K-562 leukemia, over 100 µM; in the assay with M14 melanoma, 42.8 µM; in the assay with HCT-15 colon, 36.6 µM; with HL-60(TB) leukemia, 59.3 µM; in the assay on ACHN renal, 38.4 µM. The TGI in the assay with NCI-H226 lung is over 84.6 µM; in the assay on SK-OV-3 ovarian, over 100 µM; in the assay on OVCAR-4 ovarian it was over 63.7 µM.
Consider `CCN(CC)c1ccc(C2NC(=O)c3ccccc3N2)cc1` (stereo unspecified), for which the TGI is over 86.3 µM in the assay with SF-295 CNS; over 100 µM with K-562 leukemia; over 100 µM in the assay on M14 melanoma; over 100 µM in the assay with HCT-15 colon; over 100 µM in the assay with MCF7 breast; over 100 µM in the assay on ACHN renal. The TGI with NCI-H226 lung, in the assay with SK-OV-3 ovarian and with OVCAR-4 ovarian was over 100 µM each time.
As for `O=C(O)c1c(Cl)c(Cl)c(Cl)c(Cl)c1C(=O)Nc1ccc2cn[nH]c2c1`, the TGI in the assay on SF-295 CNS, with K-562 leukemia, in the assay with M14 melanoma, with HCT-15 colon, with MCF7 breast and in the assay with ACHN renal was over 100 µM in each case. In addition, the TGI with NCI-H226 lung, with SK-OV-3 ovarian and with OVCAR-4 ovarian was over 100 µM in each case.
Take `O=Cc1c(-c2ccccc2)[nH]c2ccccc2c1=O`: the TGI in the assay with SF-295 CNS, in the assay with M14 melanoma, with HCT-15 colon, in the assay with MCF7 breast, in the assay with ACHN renal and in the assay with NCI-H226 lung was over 100 µM each time. The TGI in the assay with SK-OV-3 ovarian and in the assay with OVCAR-4 ovarian was over 100 µM in each case.
Consider `Cc1ccc(-c2nc(N3CCNCC3)c3oc(-c4ccccc4)nc3n2)cc1`, for which the GI50 with SF-295 CNS is 1.69 µM; in the assay on K-562 leukemia it was 1.61 µM; with M14 melanoma, 1.78 µM; with HCT-15 colon, 1.69 µM; with HL-60(TB) leukemia, 1.43 µM; in the assay with MCF7 breast, 1.85 µM. Moreover, the GI50 in the assay with ACHN renal was 1.75 µM; with SK-OV-3 ovarian, 15.7 µM; with OVCAR-4 ovarian, 1.89 µM. For the same compound, the TGI with SF-295 CNS came out at 3.16 µM; in the assay with K-562 leukemia, 3.55 µM; in the assay with M14 melanoma, 3.31 µM; in the assay on HCT-15 colon, 3.2 µM; with HL-60(TB) leukemia it was 3.09 µM; in the assay on MCF7 breast it was 3.75 µM. In addition, the TGI came out at 3.12 µM in the assay on ACHN renal, 29.5 µM in the assay on SK-OV-3 ovarian and 4.06 µM with OVCAR-4 ovarian.
Take `O=C1C=CC(=Nc2cccc3c(N=C4C=CC(=O)O4)cccc23)O1`: the TGI in the assay on SF-295 CNS was over 100 µM; with K-562 leukemia it was 55.6 µM; in the assay with M14 melanoma, 87.8 µM; with HCT-15 colon, over 100 µM; with MCF7 breast, over 100 µM; with ACHN renal it was 78.5 µM. For the same compound, the TGI with NCI-H226 lung, with SK-OV-3 ovarian and in the assay with OVCAR-4 ovarian was over 100 µM each time.
In the case of `CCCCCC[C@@H](C)Nc1nc2ccccc2c2occc12`, the GI50 in the assay on SF-295 CNS is 1.99 µM; with K-562 leukemia, 19.9 µM; with M14 melanoma, 11.2 µM; with HCT-15 colon, 10.1 µM; in the assay on HL-60(TB) leukemia, 22.4 µM; in the assay on MCF7 breast, 10.5 µM. Further, the results for the GI50 in the assay with ACHN renal and with SK-OV-3 ovarian were 15.5 µM and 15.7 µM, respectively. The TGI with SF-295 CNS was 19.5 µM; with K-562 leukemia it was over 100 µM; with M14 melanoma, 23.2 µM; in the assay on HCT-15 colon, 21.6 µM; with HL-60(TB) leukemia it was 62.9 µM; in the assay on MCF7 breast, over 100 µM. Also, the TGI in the assay with ACHN renal worked out at 28.8 µM; with SK-OV-3 ovarian it was 32.2 µM.
As to `Cc1c(-c2ccc(O)cc2)oc(=O)c2ccc(O)cc12`, the GI50 with SF-295 CNS is 32.8 µM; with K-562 leukemia, 38.5 µM; in the assay with M14 melanoma, 40.3 µM; in the assay with HCT-15 colon it was 89.8 µM; in the assay with MCF7 breast it was 66.3 µM; with ACHN renal, over 100 µM. For the same compound, the GI50 in the assay with NCI-H226 lung, in the assay with SK-OV-3 ovarian and in the assay on OVCAR-4 ovarian was over 100 µM each time. The TGI in the assay on SF-295 CNS, in the assay on K-562 leukemia, in the assay with M14 melanoma, with HCT-15 colon, in the assay with MCF7 breast and in the assay with ACHN renal was over 100 µM each time. The TGI in the assay on NCI-H226 lung, in the assay with SK-OV-3 ovarian and in the assay on OVCAR-4 ovarian was over 100 µM in each case.
As to `CN(C)C(=O)NC(=S)N(C)C`, the TGI with SF-295 CNS, in the assay on K-562 leukemia, in the assay on M14 melanoma, in the assay with HCT-15 colon, in the assay with HL-60(TB) leukemia and with ACHN renal was over 100 µM throughout. The TGI with NCI-H226 lung, in the assay with SK-OV-3 ovarian and in the assay with OVCAR-4 ovarian was over 100 µM throughout.
Take `CC(=O)[CH-]C(=O)c1ccccc1.CC(=O)[CH-]C(=O)c1ccccc1.CC(C)CCC[C@H](C)C1CCC2[C@@H]3CC=C4C[C@@H]([O-])CC[C@]4(C)C3CC[C@@]21C.CC(C)CCC[C@H](C)C1CCC2[C@@H]3CC=C4C[C@@H]([O-])CC[C@]4(C)C3CC[C@@]21C.Cl.[Ti+4]` (stereo partly specified): the GI50 is over 25 µM in the assay with SF-295 CNS; over 25 µM in the assay on K-562 leukemia; over 25 µM in the assay with M14 melanoma; over 25 µM with HCT-15 colon; 13.7 µM in the assay with HL-60(TB) leukemia; over 25 µM with ACHN renal. Further, the GI50 with NCI-H226 lung, in the assay on SK-OV-3 ovarian and with OVCAR-4 ovarian was over 25 µM throughout. Besides, the TGI in the assay with SF-295 CNS, in the assay with K-562 leukemia, with M14 melanoma, with HCT-15 colon, with HL-60(TB) leukemia and in the assay on ACHN renal was over 25 µM in each case. The TGI in the assay on NCI-H226 lung, in the assay on SK-OV-3 ovarian and with OVCAR-4 ovarian was over 25 µM in each case.
For the compound `CCN(CC)CCN1C(=O)C2C3C(=O)CC(C)(CC3C)C2C1=O` (stereo unspecified), the GI50 in the assay on SF-295 CNS, in the assay with K-562 leukemia, in the assay on M14 melanoma, in the assay on HCT-15 colon, in the assay with HL-60(TB) leukemia and in the assay with ACHN renal was over 100 µM in each case. The GI50 in the assay on NCI-H226 lung, in the assay on SK-OV-3 ovarian and with OVCAR-4 ovarian was over 100 µM throughout. Besides, the TGI with SF-295 CNS, in the assay with K-562 leukemia, in the assay with M14 melanoma, in the assay on HCT-15 colon, in the assay on HL-60(TB) leukemia and in the assay with ACHN renal was over 100 µM in each case. Further, the TGI with NCI-H226 lung, in the assay on SK-OV-3 ovarian and in the assay on OVCAR-4 ovarian was over 100 µM in each case.

Values taken from PubChem BioAssay (NCI).
